Publication PMC8587000, “Pyridinone Derivatives as Interesting Formyl Peptide Receptor (FPR) Agonists for the Treatment of Rheumatoid Arthritis” (Molecules, 2021)
Read-outs that look alike come from different tables or passages of the source. Values belong to the compound of their own block, whether it stands above or below them.

How the values were obtained:
[1] = biological target: T1, FPR2 (Homo sapiens, UniProt P25090); parameters: method as in PMID 32388428; settings: Ca2+ mobilization; read-out: FPR2-HL60 EC50; cited from earlier work
T1 construct: expressed in transfected cells; host or cells: HL60 (human promyelocytic leukemia), stably transfected; gift from Dr. Marie-Josephe Rabiet
T1 sequence (P25090 1-351): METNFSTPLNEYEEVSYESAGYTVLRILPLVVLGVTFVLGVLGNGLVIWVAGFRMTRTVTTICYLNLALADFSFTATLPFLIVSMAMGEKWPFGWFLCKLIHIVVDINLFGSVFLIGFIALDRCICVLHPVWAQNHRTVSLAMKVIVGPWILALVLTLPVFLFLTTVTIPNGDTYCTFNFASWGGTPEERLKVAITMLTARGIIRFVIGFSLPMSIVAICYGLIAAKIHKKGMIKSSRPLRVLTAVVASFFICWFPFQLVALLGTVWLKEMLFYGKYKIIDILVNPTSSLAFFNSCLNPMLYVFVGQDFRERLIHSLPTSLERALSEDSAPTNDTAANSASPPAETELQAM

[2] = biological target: T1, FPR2; assay: Ca2+ mobilization in FPR2-transfected HL60 cells; type: cell-based
Description: (§2) Human promyelocytic leukemia HL60 cells stably transfected with FPR1 (FPR1-HL60 cells) or FPR2 (FPR2-HL60 cells) (kind gift from Dr. Marie-Josephe Rabiet, Université Joseph Fourier, Grenoble, France) were cultured in RPMI 1640 medium supplemented with 10% heat-inactivated fetal calf serum, 10 mM HEPES, 100 μg/mL streptomycin, 100 U/mL penicillin, and G418 (1 mg/mL). G418 was removed in the last round of culture before assays were performed.

[3] = biological target: T2, FPR1 (Homo sapiens, UniProt P21462); parameters: method as in PMID 32388428; settings: Ca2+ mobilization; read-out: FPR1-HL60 EC50; cited from earlier work
T2 construct: expressed in transfected cells; host or cells: HL60 (human promyelocytic leukemia), stably transfected; gift from Dr. Marie-Josephe Rabiet
T2 sequence (P21462 1-350): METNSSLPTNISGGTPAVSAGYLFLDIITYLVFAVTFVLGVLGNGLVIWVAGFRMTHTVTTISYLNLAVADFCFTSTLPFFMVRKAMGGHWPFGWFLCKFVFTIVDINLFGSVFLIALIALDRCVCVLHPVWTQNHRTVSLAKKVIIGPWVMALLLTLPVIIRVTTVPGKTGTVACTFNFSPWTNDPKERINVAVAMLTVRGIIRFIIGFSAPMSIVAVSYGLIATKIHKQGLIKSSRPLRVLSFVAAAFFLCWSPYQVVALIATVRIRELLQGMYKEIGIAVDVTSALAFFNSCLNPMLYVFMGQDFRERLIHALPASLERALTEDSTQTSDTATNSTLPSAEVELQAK

[4] = system: human neutrophils (hPMN); parameters: method as in PMID 32388428; settings: Ca2+ mobilization; cited from earlier work
[5] = system: animal models (collagen-induced and antigen-induced arthritis) of RA; parameters: method as in PMID 16697190, PMID 29879657; settings: dose of 30 mg/kg (i.p.); cited from earlier work
[6] = system: model of antigen-induced arthritis; parameters: method as in PMID 33493655, PMID 30419493; settings: increasing neutrophil apoptosis and efferocytosis; cited from earlier work
[7] = system: CFA-treated rats; assay: Paw pressure test in CFA-induced inflammatory arthritis; type: in vivo, rat; settings: 10 mg/kg p.o. daily for 7 days, day 8 (24 h after last dose), CFA + vehicle 35.2 ± 1.6 g, sham + vehicle 66.4 ± 2.3 g, mean ± SEM, five rats
Description: (§1) Male Sprague Dawley rats (Envigo, Varese, Italy) weighing approximately 200–250 g at the beginning of the experimental procedure were used. Animals were housed in Ce.S.A.L. (Centro Stabulazione Animali da Laboratorio, University of Florence) and used at least one week after their arrival. Four rats were housed per cage (size 26 × 41 cm^2); animals were fed a standard laboratory diet, given tap water ad libitum, and kept at 23 ± 1 °C with a 12 h light/dark cycle, light at 7 a.m. All animal manipulations were carried out according to the Directive 2010/63/EU of the European parliament and of the European Union council (22 September 2010) on the protection of animals used for scientific purposes. The ethical policy of the University of Florence complies with the Guide for the Care and Use of Laboratory Animals of the US National Institutes of Health (NIH Publication No. 85–23, revised 1996; University of Florence assurance number: A5278-01). Formal approval to conduct the experiments described was obtained from the Italian Ministry of Health (No. 517/2017, 06/04/2017) and from the Animal Subjects Review Board of the University of Florence. Experiments involving animals have been reported according to ARRIVE guidelines. […]
Nociceptive threshold was determined with an analgesimeter (Ugo Basile, Varese, Italy). […]

[8] = system: rat model of rheumatoid arthritis; parameters: method as in PMID 32388428; settings: dose of 30 mg/kg/day; cited from earlier work
[9] = system: CFA-treated rats; assay: Incapacitance test in CFA-induced inflammatory arthritis; type: in vivo, rat; settings: 10 mg/kg p.o. daily for 7 days, day 8, CFA + vehicle 57.2 ± 4.0 g, sham + vehicle 3.6 ± 2.5 g, mean ± SEM, five rats
Description: as §1, with “A5278-01).” for “A5278-01). Formal approval to conduct the experiments described was obtained from the Italian Ministry of Health (No. 517/2017, 06/04/2017) and from the Animal Subjects Review Board of the University of Florence. Experiments involving animals have been reported according to ARRIVE guidelines.”
Weight bearing changes were measured using an Incapacitance Apparatus (Linton Instrumentation, UK), detecting changes in postural equilibrium after a hind limb injury. […] Data are expressed as the difference between the weight applied to the limb contralateral to the injury and the weight applied to the ipsilateral one (Δ weight).

[10] = biological target: T2, FPR1; assay: Ca2+ mobilization in FPR1-transfected HL60 cells; type: cell-based
Description: as §2

[11] = system: human neutrophils (hPMN); assay: Ca2+ mobilization in human neutrophils (hPMN); type: cell-based; settings: Neutrophil
Description: Blood was collected from healthy donors in accordance with a protocol approved by the Institutional Review Board at Montana State University. Neutrophils were purified from the blood using dextran sedimentation, followed by Histopaque 1077 gradient separation and hypotonic lysis of red blood cells. Isolated neutrophils were washed twice and resuspended in HBSS^-. Neutrophil preparations were routinely >95% pure, as determined by light microscopy, and >98% viable, as determined by trypan blue exclusion.
Changes in intracellular Ca^2+ were measured with a FlexStation II scanning fluorometer (Molecular Devices, Sunnyvale, CA, USA). The cells, suspended in Hank’s balanced salt solution without Ca^2+ and Mg^2+ but with 10 mM HEPES (HBSS^−), were loaded with 1.25 μg/mL Fluo-4 AM dye and incubated for 30 min in the dark at 37 °C. After dye loading, the cells were washed with HBSS^- containing 10 mM HEPES, resuspended in HBSS^+ containing Ca^2+, Mg^2+, and 10 mM HEPES (HBSS^+), and aliquoted into the wells of flat-bottom, half-area-well black microtiter plates (2 × 10^5 cells/well). For the evaluation of direct agonist activity, compounds of interest were added from a source plate containing dilutions of test compounds in HBSS^+, and changes in fluorescence were monitored (λex = 485 nm, λem = 538 nm) every 5 s for 240 s at room temperature after the automated addition of compounds. Maximum change in fluorescence during the first 3 min, expressed in arbitrary units over baseline, was used to determine a response. […] Curve fitting (5–6 points) and calculation of median effective inhibitory concentrations (IC50) were performed by nonlinear regression analysis of the dose–response curves generated using Prism 9 (GraphPad Software, Inc., San Diego, CA, USA).

selectivity index (SI) FPR1/FPR2 ([2]; ratio of EC50 FPR1-HL60 / FPR2-HL60): 8
SMILES: CCOC(=O)c1cc(C#N)c(=O)n(CC(=O)Nc2ccc(Br)cc2)c1C [AMC4, reference compound]
EC50 [1]: 380 ± 90 nM
EC50 [3]: 3000 ± 400 nM
EC50 [4]: 830 ± 240 nM

SMILES: CC(C)c1c(NC(=O)Nc2ccc(Cl)cc2)c(=O)n(-c2ccccc2)n1C [Cpd43]
effect on arthritis (tissue inflammation, cartilage damage, synovitis) [5]: significantly reducing the tissue inflammation, cartilage damage, and synovitis

SMILES: CCC[C@@H](O)c1c(/C=C/[C@@H](O)[C@@H](O)CCCC(=O)OC)nc(C)n1C [AT-01-KG]
anti-inflammatory activity [6]: anti-inflammatory activity

SMILES: COc1cccc(-c2cc(C#N)c(=O)n(CC(=O)Nc3ccc(Br)cc3)c2C)c1 [AMC3]
pain threshold (paw pressure test) [7]: 52.4 ± 2.8 g
effect on pain hypersensitivity [8]: completely control pain hypersensitivity
EC50 [4]: 390 ± 170 nM
postural unbalance, Δ Weight (incapacitance test) [9]: 34.6 ± 3.8 g

EC50 [2]: 1300 ± 100 nM
Emax ([2]; HL-60, read-out: FPR2-HL60 Efficacy (converted)): 135%
EC50 [10]: 7000 ± 700 nM
Emax ([10]; HL-60, read-out: FPR1-HL60 Efficacy (converted)): 120%
melting point: 274 to 276 °C (dec.)
EC50 [11]: 7200 ± 1600 nM
SMILES: CCCNC(=O)c1cc(C#N)c(=O)n(CC(=O)Nc2ccc(Br)cc2)c1C [Compound 8c, 1-{2-[(4-bromophenyl)amino]-2-oxoethyl}-5-cyano-2-methyl-6-oxo-N-propyl-1,6-dihydropyridine-3-carboxamide]
Emax ([11]; read-out: hPMN Efficacy (converted)): 70%
